{"source": "patent US7390870B2", "about": "“Immune-enhancing peptides” (Posco, priority 2001, dated 2008)", "format_in_all_cases": "cell-based", "key": {"[1]": {"system": "3Y1 (Rat embryonic fibroblast)", "experiment": "[Ca2+]i rise in 3Y1 cells (fura-2)", "details": "FIG. 4A; 20 μM peptide", "method": "(§1) The level of [Ca^2+]i was determined by Grynkiewicz's method using fura-2/AM (21). Briefly, prepared cells were incubated with 3 μM fura-2/AM at 37° C. for 50 minutes in a fresh serum-free RPMI 1640 medium under continuous stirring. 2×10^6 cells were aliquoted for each assay in Ca^2+-free Locke's solution (154 mM NaCl, 5.6 mM KCl1.2 mM MgCl2, 5 mM HEPES, pH 7.3, 10 mM glucose, and 0.2 mM EGTA). The fluorescence changes at the dual excitation wavelengths of 340 nm and 380 nm and the emission wavelength of 500 nm were measured, and the calibrated fluorescence ratio was translated into [Ca^2+]i.\n(§2) From the fact that HFYLPM, MFYLPM, and HFYLPm stimulate human monocytes, effects of the peptides on other leukocytes such as neutrophils were evaluated. Prepared human primary monocytes, neutrophils, cultured HL60, Jurkat, U937, NIH3T3, 3Y1, 3T3L1, and PC12 cells were loaded with fura-2 and stimulated with effective concentrations of the three peptides (1 μM for monocyte and neutrophil; 10 μM for HL60 and Jurkat; 20 μM for U937, NIH3T3, 3Y1, 3T3L1, and PC12). The peak level of the [Ca^2+]i increase was recorded and superoxide generation was measured using cytochrome c reduction assay. The results are shown FIG. 4. The data of FIG. 4 are presented as means ±S.E. from at least three independent experiments."}, "human monocytes": {"system": "human monocytes", "experiment": "Superoxide generation in human monocytes (cytochrome c reduction assay)", "design": "activity in terms of superoxide generation among the identified peptides: dose or concentration left out as unconfirmed", "method": "For initial screening of the PS-SPCLs, the superoxide anion generation of each peptide pool was evaluated by measuring reduction of cytochrome c using a microtiter 96 well plate ELISA reader (Bio-Tekinstruments, EL312e, Winooski, Vt.) as described (20). The cytochrome c was purchased from Sigma (St. Louis, Mo.). The human monocytes (9×10^5 cells/100 □ of RPMI 1640 medium per well of a 96-well plate) were preincubated with 50 μM cytochrome c at 37° C. for 1 minute and then incubated with the indicated concentrations of peptide pools (final 0.5 nM per peptide sequence for the initial screening). The superoxide generation was measured as change in light absorption at 550 nm over 5 minutes at 1 minute intervals. From at least four independent experiments, peptides with active amino acids at each position were chosen. Superoxide generation by the identified peptides was measured by the same method. Spurious reduction of cytochrome c was ruled out by checking that the peptides-induced ones were superoxide dismutase-inhibitable in all experiments.\nBased on the results of the initial screening of the peptide libraries of Example 4, a peptide pool containing twelve (2×1×1×1×2×3=12) individual hexapeptides were generated by reiterative synthesis. […]\nThe superoxide generated was measured using a cytochrome c reduction assay as described above. […]"}, "[2]": {"system": "NIH3T3 (NIH Swiss mouse embryo fibroblast)", "experiment": "[Ca2+]i rise in NIH3T3 cells (fura-2)", "details": "FIG. 4A; 20 μM peptide", "method": "as §1, §2"}, "[3]": {"system": "Jurkat human T cell leukemia cells", "experiment": "[Ca2+]i increase in Jurkat cells (fura-2)", "details": "FIG. 4A; MFYLPM up to 30 μM", "method": "as §1, §2"}, "[4]": {"system": "PC12 (rat adrenal pheochromocytoma)", "experiment": "[Ca2+]i rise in PC12 cells (fura-2)", "details": "FIG. 4A; 20 μM peptide", "method": "as §1, §2"}, "3T3L1 (preadipocyte)": {"system": "3T3L1 (preadipocyte)", "experiment": "[Ca2+]i rise in 3T3L1 cells (fura-2)", "details": "FIG. 4A; 20 μM peptide", "method": "as §1, §2"}}, "note": "No end group written: not given here."}
{"substance": "Met-Phe-Tyr-Leu-Pro-Met-CONH2 (MFYLPM-NH2)", "values": [{"measurement": "[Ca2+]i rise in 3Y1 cells", "setting": "[1]", "result": "no response"}, {"measurement": "activity in terms of superoxide generation among the identified peptides", "setting": "human monocytes; FIG. 2A, monocytes stimulated", "result": "most active"}, {"measurement": "concentration of maximal activity, superoxide generation", "setting": "human monocytes; FIG. 2B, concentration dependency", "result": 3.3, "unit": "µM"}, {"measurement": "[Ca2+]i rise in NIH3T3 cells", "setting": "[2]", "result": "no response"}, {"measurement": "intracellular calcium mobilization in Jurkat cells", "setting": "[3]", "result": "did not cause a similar intracellular calcium mobilization"}, {"measurement": "[Ca2+]i rise in PC12 cells", "setting": "[4]", "result": "no response"}, {"measurement": "[Ca2+]i rise in 3T3L1 cells", "setting": "3T3L1 (preadipocyte)", "result": "no response"}]}
